The record followed here is publication PMC3664642, “A Peptide against Soluble Guanylyl Cyclase α1: A New Approach to Treating Prostate Cancer” (PLoS ONE, 2013).

The subject of series [1] is LNCaP cells. The series is described as follows: Proliferation/cytotoxicity, LNCaP cells (MTT). In kind it is cell-based. The following applies: different concentrations, averages of three independent experiments. How it is done:
LNCaP, C81, PC-3 and Cos cells were grown as previously described. CWR-22Rv1 cells were cultured in RMPI-1640 medium with 10% FBS and 50 µg/ml Gentamicin (Gibco). Control siRNA, sGCα1 siRNA and AKT siRNA (Dharmacon) at 50 nM final concentration was transfected into cells using Lipofectamine siMAX (Invitrogen).
(§1) For proliferation, cells were grown in medium containing 2% FBS extracted with dextran-coated charcoal (DCC). 48 hours later, ethanol or 1 nM R1881 was added to the cells followed by peptide treatment. The MTT assay (Sigma) was used as before to determine cell number. For apoptosis, 5000 cells were seeded in 96-well plates and treated with Vehicle (DMSO), Peptide A-8R (25 µM), Etoposide (50 µM) (Sigma) at different time points. The Caspase (3/7) activity was measured using Apo-ONE Homogeneous Caspase-3/7 assay kit (Promega). PARP cleavage was also used to measure apoptosis, and is described below.
(A) Four peptides were designed targeting sGCα1, with each peptide containing eight arginines at the C-terminus for membrane translocation. (B) LNCaP cells were grown in 10% serum under different concentrations of the four peptides, as shown. Cell number was measured after 0–4 days of incubation. Data points represent averages of three independent experiments plus standard deviations. Asterisks indicate statistical significance (P<0.0002) of Peptide A activity, relative to Vehicle.
Figure 2 Peptide A-8R interacts with sGCα1 in prostate cancer cells. (A) LNCaP cells were treated with 25 µM Biotin-labeled Peptide A-8R for 2 hrs and subjected to immunocytochemistry using anti-sGCα1 or anti-Biotin antibody to measure subcellular co-localization of endogenous sGCα1 and Peptide A-8R. DAPI was used to stain nuclei. (B) LNCaP cytosolic extracts were incubated with Peptide A-8R-Biotin and subjected to purification using streptavidin-agarose. This pull-down experiment was repeated with competing excess amount of unlabeled Peptide C-8R or Peptide A-8R. […] Co-purified Peptide A-8R-FITC was quantified by measuring fluorescence signal emission. […] Cell number was measured after 0–48 hrs of incubation. […]

Series [2] has as its system AKT. The series can be described thus: Western blot of AKT in cells. In kind it is cell-based. Particulars: LNCaP, 25 µM, Fig. S4A. The protocol:
(§2) Western blotting was performed as described using primary antibodies against sGCα1 (Cayman Chemical), pan-Akt (Cell Signaling Technology), phospho-AKT (S473, T308) (Cell Signaling Technology), phospho-PDK1 (Cell Signaling Technology), phospho-GSK-3β (Cell Signaling Technology), PARP (Cell Signaling Technology), and β-Actin (Abcam).
Supplementary file pone.0064189.s004.tif: Figure S4 Peptide A-mediated down-regulation of AKT is not involved in its cytotoxicity to prostate cancer cells. Western blotting was used to measure the levels of total AKT or Ser-473-phosphorylated AKT in (A) LNCaP cells treated with Vehicle, Peptide A-8R, or Peptide C-8R (25 µM) for different times, as shown, (B) mouse xenograft tumors treated with Vehicle or Peptide A-8R, or (C) LNCaP cells infected with Empty or AKT-expressing adenovirus and treated with Peptide A-8R at different concentration, as shown, for 30 min. Note that β-actin was used to control for protein loading. (D) LNCaP cells, infected with Empty or AKT-expressing adenovirus, were grown in 10% serum under different concentrations of Peptide A-8R, as shown. Cell number was measured after 0–6 days of incubation. Data points represent averages of three independent experiments plus standard deviations. (TIF) Click here for additional data file.

Series [3] has as its system AKT. The series is described as follows: Western blot of AKT in xenograft tumors. In kind it is in vivo. The following applies: mouse xenograft tumors; Fig. S4B. How it is done:
as §2
2×10^6 C81 cells in 50 µL of growth medium was mixed with 50 µL Matrigel (BD Biosciences) and injected into both flanks of 4–6-week old SCID male mice. When tumor sizes reached 200 mm^3, 50 µL of Peptide A-8R (40 mg Peptide A-8R/Kg of animal) or Vehicle (DMSO) was directly injected into the tumors every other day. Injections were stopped after 5 times and tumors were measured every 3 days. Mice were euthanized after 3 weeks and tumors were excised. All procedures were approved by the University of Toledo Division of Lab Animal Recourses (DLAR). Protein extracts were prepared by boiling the tumor tissue in 3× SDS buffer, and evaluated by SDS-PAGE gel.
Supplementary file pone.0064189.s004.tif: Figure S4 Peptide A-mediated down-regulation of AKT is not involved in its cytotoxicity to prostate cancer cells. […] Cell number was measured after 0–6 days of incubation. […]

Series [4] concerns Caspase 3/7 activity in PC-3 cells. The series is described as follows: Caspase 3/7 assay, PC-3 cells. It is filed as cell-based. Particulars: 10 µM; 0–24 hrs; Fig. 5B. How it is done:
as §1
Figure 5 Peptide A-8R induces apoptosis of prostate cancer cells. (A) LNCaP, (B) PC-3, or (C) Cos cells were treated with Vehicle, Peptide A-8R (10 µM), or Etoposide (20 µM) for 0–24 hrs and subjected to a Caspase assay to measure apoptosis. Bar graphs represent averages of three independent experiments plus standard deviations. All activities are relative to the first condition, and this activity was set to 1. Asterisks indicate statistical significance (P<0.005). (D) LNCaP cells were treated with Vehicle, Peptide C-8R, Peptide A-8R, or Etoposide (each drug at 50 µM) for 8 hrs and monitored for apoptosis by measuring PARP cleavage using Western blotting. Note that β-actin was used to control for protein loading.

The next series has as its system p53. The series can be described thus: p53 activity and dependence. It is filed as cell-based. Particulars: prostate cancer cells; data not shown.
In series [5] the test system is LNCaP cells. The series is described as follows: AKT over-expression (adenovirus) rescue of Peptide A-8R-treated cells. The following applies: 10- 50 µM Peptide A-8R; 10% serum; 0–6 days; Fig. S4D. It is filed as cell-based.

“Also recorded” adds a separate entry of the source. Where no end group is shown, it is not given here.

Turning to Ac-TFCKAFPFHIIRRRRRRRR [Peptide A-8R], the “cytotoxic activity / cell number, LNCaP” value in the series with LNCaP cells [1] (10% serum, 0–4 days, Fig. 1B, P<0.0002 Peptide A vs Vehicle) is “strong, dose-dependent, cytotoxic activity, killing nearly all cells by day 4; also recorded: strongly cytotoxic to prostate cancer cells”. Further, the “cytotoxic effect with or without 8-arginine sequence” value with LNCaP cells [1] (LNCaP, MTT, Fig. S2, P<0.005) is listed as “strong cytotoxic effect”. Moreover, in the series on AKT [2] (Ser-473), the “effect on phosphorylated AKT level” value is reported as “similarly affected”. Also, the “effect on total AKT protein level” value in the series on AKT [2] (time course, 50 min) is listed as “strong, time-dependent negative effect on the AKT protein, such that by 50 min most of the measurable AKT is gone; also recorded: significantly reduces AKT protein levels”. Besides, the “effect on AKT protein level in tumors” value in the series on AKT [3] was “same negative effect on AKT protein levels; also recorded: significantly reduces AKT protein levels”. The “induction of apoptosis, PC-3” value in series [4] is on record as “failed to induce apoptosis”. Besides, in the series with p53, the “effect on p53 activity and p53 dependence of apoptosis” value was “does not disrupt p53 activity nor depend on endogenous p53 for inducing apoptosis”. Also, in the series on LNCaP cells [5], the “rescue by adenovirus-expressed AKT” value is reported as “unable to rescue”.
